According to patent US11136329B2, “JAK inhibitors” (Vimalan Biosciences, Inc., priority 2019, dated 2021):

How the values were obtained:
Assay type in all cases: biochemical
JAK3 = JAK3 (Homo sapiens (Human), UniProt P52333); assay: JAK/TYK2 assay (Kinase Glo luminescence), JAK3; conditions: 1.5 nM enzyme, 2 uM ATP, 4 uM pEY, 1 hr
Method in brief: (§1)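 Enzyme was […] mixed with compound in HEPES buffer pH 7.5 (10 mM MgCl2, 1 mM DTT, 0.01% Tween), then substrate mixture added; reaction ran 1-2 hours at 25° C. Kinase Glo reagent stopped it and gave luminescence, lower signal meaning higher kinase activity.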

JAK1 = JAK1 (Homo sapiens (Human), UniProt P23458); assay: JAK/TYK2 assay (Kinase Glo luminescence), JAK1; conditions: 7.5 nM enzyme, 2 uM ATP, 30 uM IRS-1, 1 hr
Method in brief: as §1

TYK2 = TYK2 (Homo sapiens (Human), UniProt P29597); assay: JAK/TYK2 assay (Kinase Glo luminescence), TYK2; conditions: 9 nM enzyme, 2 uM ATP, 30 uM IRS-1, 1 hr
Method in brief: as §1

JAK2 = JAK2 (Homo sapiens (Human), UniProt O60674); assay: JAK/TYK2 assay (Kinase Glo luminescence), JAK2; conditions: 0.8 nM enzyme, 2 uM ATP, 4 uM pEY, 1 hr
Method in brief: as §1

Chain of JAK3 (P52333 whole entry, species assumed): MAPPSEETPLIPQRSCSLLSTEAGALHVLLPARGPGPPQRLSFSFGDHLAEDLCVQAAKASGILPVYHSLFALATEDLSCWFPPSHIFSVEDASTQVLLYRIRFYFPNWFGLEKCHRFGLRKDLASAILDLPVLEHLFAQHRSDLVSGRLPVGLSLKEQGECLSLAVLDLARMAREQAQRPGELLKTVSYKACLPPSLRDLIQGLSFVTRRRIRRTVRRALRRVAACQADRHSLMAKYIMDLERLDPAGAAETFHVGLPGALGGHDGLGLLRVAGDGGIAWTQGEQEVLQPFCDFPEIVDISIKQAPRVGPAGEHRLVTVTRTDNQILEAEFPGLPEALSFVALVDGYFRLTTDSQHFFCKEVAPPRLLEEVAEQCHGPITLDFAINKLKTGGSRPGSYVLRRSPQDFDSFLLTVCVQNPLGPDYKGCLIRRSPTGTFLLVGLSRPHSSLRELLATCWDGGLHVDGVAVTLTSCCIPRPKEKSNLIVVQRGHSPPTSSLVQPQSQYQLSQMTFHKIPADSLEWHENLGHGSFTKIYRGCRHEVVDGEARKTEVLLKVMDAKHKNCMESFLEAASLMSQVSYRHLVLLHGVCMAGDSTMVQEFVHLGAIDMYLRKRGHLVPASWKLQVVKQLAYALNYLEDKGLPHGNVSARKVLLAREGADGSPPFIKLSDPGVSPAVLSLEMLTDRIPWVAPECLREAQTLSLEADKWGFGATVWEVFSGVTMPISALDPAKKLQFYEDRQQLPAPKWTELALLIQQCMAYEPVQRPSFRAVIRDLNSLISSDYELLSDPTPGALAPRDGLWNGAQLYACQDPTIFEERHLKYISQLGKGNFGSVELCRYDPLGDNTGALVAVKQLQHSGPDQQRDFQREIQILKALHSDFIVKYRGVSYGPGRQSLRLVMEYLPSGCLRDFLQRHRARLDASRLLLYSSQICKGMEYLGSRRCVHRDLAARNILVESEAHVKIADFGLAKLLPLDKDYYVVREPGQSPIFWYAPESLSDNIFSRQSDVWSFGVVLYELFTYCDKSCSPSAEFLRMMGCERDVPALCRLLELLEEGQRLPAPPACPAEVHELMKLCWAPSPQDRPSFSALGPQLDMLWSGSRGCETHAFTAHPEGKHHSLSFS
Chain of JAK2 (O60674 whole entry, species assumed): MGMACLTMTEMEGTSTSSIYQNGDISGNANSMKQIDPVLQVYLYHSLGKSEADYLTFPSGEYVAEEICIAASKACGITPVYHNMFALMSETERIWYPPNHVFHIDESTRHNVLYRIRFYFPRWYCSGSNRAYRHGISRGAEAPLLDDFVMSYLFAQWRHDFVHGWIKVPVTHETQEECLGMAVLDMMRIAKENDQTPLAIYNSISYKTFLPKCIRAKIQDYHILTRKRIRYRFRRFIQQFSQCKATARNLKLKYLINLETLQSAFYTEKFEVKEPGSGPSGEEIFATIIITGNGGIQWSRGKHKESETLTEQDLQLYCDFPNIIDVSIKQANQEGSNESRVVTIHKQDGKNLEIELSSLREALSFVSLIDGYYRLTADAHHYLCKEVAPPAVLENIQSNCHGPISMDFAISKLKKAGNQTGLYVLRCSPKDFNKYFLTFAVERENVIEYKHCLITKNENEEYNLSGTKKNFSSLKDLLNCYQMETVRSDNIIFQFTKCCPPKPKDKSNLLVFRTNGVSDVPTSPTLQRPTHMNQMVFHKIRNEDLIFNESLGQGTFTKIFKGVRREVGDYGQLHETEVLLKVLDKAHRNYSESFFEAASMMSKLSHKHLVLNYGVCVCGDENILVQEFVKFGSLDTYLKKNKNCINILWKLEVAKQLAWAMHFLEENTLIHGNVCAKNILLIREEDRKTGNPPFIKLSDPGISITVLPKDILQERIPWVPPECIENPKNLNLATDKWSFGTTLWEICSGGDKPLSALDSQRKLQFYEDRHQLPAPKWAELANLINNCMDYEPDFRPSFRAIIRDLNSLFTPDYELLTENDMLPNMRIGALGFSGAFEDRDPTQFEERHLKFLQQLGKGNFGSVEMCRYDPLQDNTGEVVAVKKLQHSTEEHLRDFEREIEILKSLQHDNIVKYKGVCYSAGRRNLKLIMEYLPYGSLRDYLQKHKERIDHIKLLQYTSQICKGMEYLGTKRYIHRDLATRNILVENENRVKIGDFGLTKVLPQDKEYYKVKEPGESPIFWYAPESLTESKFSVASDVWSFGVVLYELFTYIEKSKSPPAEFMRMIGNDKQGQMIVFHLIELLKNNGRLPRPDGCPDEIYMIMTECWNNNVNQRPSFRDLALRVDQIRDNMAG
Chain of JAK1 (P23458 whole entry, species assumed): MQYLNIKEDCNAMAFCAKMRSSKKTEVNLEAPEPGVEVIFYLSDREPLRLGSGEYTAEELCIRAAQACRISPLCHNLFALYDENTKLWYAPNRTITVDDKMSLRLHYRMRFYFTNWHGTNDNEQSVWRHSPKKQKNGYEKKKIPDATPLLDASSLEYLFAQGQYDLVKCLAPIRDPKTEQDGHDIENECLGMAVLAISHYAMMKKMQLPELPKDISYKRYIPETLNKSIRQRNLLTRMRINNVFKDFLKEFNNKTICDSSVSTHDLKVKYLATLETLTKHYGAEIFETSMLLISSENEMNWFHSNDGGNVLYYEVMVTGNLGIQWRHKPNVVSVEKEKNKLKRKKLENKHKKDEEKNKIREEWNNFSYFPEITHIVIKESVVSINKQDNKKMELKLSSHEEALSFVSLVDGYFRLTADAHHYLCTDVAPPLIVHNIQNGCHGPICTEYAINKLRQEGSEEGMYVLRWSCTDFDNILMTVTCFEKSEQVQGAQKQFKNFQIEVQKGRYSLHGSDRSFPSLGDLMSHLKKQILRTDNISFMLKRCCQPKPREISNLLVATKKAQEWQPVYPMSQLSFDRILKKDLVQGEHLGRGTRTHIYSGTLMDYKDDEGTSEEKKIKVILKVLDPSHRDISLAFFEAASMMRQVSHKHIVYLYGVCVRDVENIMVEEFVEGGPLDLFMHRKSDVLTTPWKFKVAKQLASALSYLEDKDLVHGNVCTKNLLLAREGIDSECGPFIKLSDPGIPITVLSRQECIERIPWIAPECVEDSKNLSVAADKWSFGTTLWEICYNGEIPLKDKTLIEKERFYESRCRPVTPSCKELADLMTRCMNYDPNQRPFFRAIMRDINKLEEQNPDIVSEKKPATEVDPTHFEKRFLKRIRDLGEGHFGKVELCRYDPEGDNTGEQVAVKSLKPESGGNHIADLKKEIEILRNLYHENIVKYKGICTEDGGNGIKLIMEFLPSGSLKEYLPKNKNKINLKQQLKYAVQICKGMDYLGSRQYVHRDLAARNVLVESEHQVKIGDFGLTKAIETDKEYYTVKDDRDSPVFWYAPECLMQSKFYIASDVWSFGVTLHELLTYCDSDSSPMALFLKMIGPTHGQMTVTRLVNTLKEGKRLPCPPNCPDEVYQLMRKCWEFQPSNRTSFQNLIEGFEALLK
Chain of TYK2 (P29597 whole entry, species assumed): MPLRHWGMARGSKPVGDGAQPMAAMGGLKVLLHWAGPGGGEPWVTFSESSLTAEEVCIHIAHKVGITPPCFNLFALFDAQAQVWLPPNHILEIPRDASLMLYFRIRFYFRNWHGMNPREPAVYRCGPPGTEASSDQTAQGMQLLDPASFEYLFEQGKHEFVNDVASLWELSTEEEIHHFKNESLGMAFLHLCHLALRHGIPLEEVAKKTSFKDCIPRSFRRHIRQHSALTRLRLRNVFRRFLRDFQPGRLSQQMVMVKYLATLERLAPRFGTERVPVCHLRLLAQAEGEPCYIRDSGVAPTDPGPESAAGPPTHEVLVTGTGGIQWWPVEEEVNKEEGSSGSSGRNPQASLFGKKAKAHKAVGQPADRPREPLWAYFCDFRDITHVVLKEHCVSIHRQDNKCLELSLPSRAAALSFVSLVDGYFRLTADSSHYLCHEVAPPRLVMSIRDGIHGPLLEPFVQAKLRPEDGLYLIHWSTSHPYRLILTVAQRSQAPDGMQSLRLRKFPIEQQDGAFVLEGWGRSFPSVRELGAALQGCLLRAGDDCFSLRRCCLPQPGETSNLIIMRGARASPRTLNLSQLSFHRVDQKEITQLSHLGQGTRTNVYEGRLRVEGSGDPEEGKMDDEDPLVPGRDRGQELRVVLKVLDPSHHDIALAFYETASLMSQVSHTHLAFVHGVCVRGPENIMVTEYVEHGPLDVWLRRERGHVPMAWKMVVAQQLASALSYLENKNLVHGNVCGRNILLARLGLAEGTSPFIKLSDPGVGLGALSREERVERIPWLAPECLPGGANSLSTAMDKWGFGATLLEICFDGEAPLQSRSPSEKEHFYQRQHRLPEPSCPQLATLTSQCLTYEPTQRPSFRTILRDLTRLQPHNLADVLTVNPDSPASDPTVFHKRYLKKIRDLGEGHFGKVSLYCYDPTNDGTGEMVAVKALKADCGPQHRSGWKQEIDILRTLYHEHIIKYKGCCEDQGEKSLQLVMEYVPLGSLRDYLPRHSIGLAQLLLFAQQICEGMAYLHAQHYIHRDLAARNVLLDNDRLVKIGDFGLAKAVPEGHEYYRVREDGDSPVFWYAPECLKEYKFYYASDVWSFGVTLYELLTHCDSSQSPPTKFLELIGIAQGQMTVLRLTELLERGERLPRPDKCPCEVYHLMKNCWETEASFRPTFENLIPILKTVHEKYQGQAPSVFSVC

IC50 (JAK3) [nM] | IC50 (JAK1) [nM] | IC50 (TYK2) [nM] | IC50 (JAK2) [nM] | SMILES
< 100 | < 100 | < 100 | < 100 | CCC(Cn1ccc2cnc(Nc3cnn(CC(=O)O)c3)nc21)C(C)C (centres unmarked) [Compound 29, 2-(4-((7-(2-ethyl-3-methylbutyl)-7H-pyrrolo[2,3-d]pyrimidin-2-yl)amino)-1H-pyrazol-1-yl)acetic acid]
< 100 | < 100 | < 100 | < 100 | CCC(Cn1ccc2cnc(Nc3cnn(C(=O)OC(C)(C)C)c3)nc21)C(C)C (centres unmarked) [Compound 137, tert-butyl 4-((7-(2-ethyl-3-methylbutyl)-7H-pyrrolo[2,3-d]pyrimidin-2-yl)amino)-1H-pyrazole-1-carboxylate]
< 100 | > 10000 | < 100 | 100 to 1000 | CCOC(=O)Cn1cc(Nc2ncc3ccn(CCC4CCCCC4)c3n2)cn1 [Compound 18, ethyl 2-(4-((7-(2-cyclohexylethyl)-7H-pyrrolo[2,3-d]pyrimidin-2-yl)amino)-1H-pyrazol-1-yl)acetate]
< 100 | < 100 | < 100 | < 100 | CCOC(=O)C(C)n1cc(Nc2ncc3ccn(C[C@@H](CC)C(C)C)c3n2)cn1 (stereo partly drawn) [Compound 118, ethyl 2-(4-((7-((S)-2-ethyl-3-methylbutyl)-7H-pyrrolo[2,3-d]pyrimidin-2-yl)amino)-1H-pyrazol-1-yl)propanoate]
< 100 | < 100 | < 100 | < 100 | CCOC(=O)Cn1cc(Nc2ncc3ccn(CC(CC)CO)c3n2)cn1 (centres unmarked) [Compound 65, ethyl 2-(4-((7-(2-(hydroxymethyl)butyl)-7H-pyrrolo[2,3-d]pyrimidin-2-yl)amino)-1H-pyrazol-1-yl)acetate]
100 to 1000 | 1000 to 10000 | 100 to 1000 | 100 to 1000 | CCOC(=O)Cn1cc(Nc2ncc3ccn(C[C@H]4CC[C@@H](OC)CC4)c3n2)cn1 [Compound 128, ethyl 2-(4-((7-(((1s,4s)-4-methoxycyclohexyl)methyl)-7H-pyrrolo[2,3-d]pyrimidin-2-yl)amino)-1H-pyrazol-1-yl)acetate]
< 100 | < 100 | < 100 | < 100 | CCC[C@H](Cn1ccc2cnc(Nc3cnn(CC(=O)OC(C)C)c3)nc21)C(C)C [Compound 100, isopropyl (S)-2-(4-((7-(2-isopropylpentyl)-7H-pyrrolo[2,3-d]pyrimidin-2-yl)amino)-1H-pyrazol-1-yl)acetate]
< 100 | 100 to 1000 | < 100 | < 100 | CCOC(=O)Cn1cc(Nc2ncc3ccn(C[C@H]4CC[C@H](OC)CC4)c3n2)cn1 [Compound 129, ethyl 2-(4-((7-(((1r,4r)-4-methoxycyclohexyl)methyl)-7H-pyrrolo[2,3-d]pyrimidin-2-yl)amino)-1H-pyrazol-1-yl)acetate]
< 100 | < 100 | < 100 | < 100 | CCC(Cn1ccc2cnc(Nc3cnn(CC(=O)OCCC#N)c3)nc21)C(C)C (centres unmarked) [Compound 92, 2-cyanoethyl 2-(4-((7-(2-ethyl-3-methylbutyl)-7H-pyrrolo[2,3-d]pyrimidin-2-yl)amino)-1H-pyrazol-1-yl)acetate]
< 100 | < 100 | < 100 | < 100 | CCC(CC)Cn1ccc2cnc(Nc3cnn(CC(=O)OCCN(C)C)c3)nc21 [Compound 103, 2-(dimethylamino)ethyl 2-(4-((7-(2-ethylbutyl)-7H-pyrrolo[2,3-d]pyrimidin-2-yl)amino)-1H-pyrazol-1-yl)acetate]
< 100 | < 100 | < 100 | < 100 | CCOC(=O)Cn1cc(Nc2ncc3ccn(CCC(C)C)c3n2)cn1 [Compound 21, ethyl 2-(4-((7-isopentyl-7H-pyrrolo[2,3-d]pyrimidin-2-yl)amino)-1H-pyrazol-1-yl)acetate]
< 100 | < 100 | < 100 | < 100 | CC(C)OC(=O)Cn1cc(Nc2ncc3ccn(CC(C(C)C)C(C)C)c3n2)cn1 [Compound 94, isopropyl 2-(4-((7-(2-isopropyl-3-methylbutyl)-7H-pyrrolo[2,3-d]pyrimidin-2-yl)amino)-1H-pyrazol-1-yl)acetate]
< 100 | < 100 | < 100 | < 100 | O=C(O)Cn1cc(Nc2ncc3ccn(CC4CCCC(F)(F)C4)c3n2)cn1 (centres unmarked) [Compound 38, 2-(4-((7-((3,3-difluorocyclohexyl)methyl)-7H-pyrrolo[2,3-d]pyrimidin-2-yl)amino)-1H-pyrazol-1-yl)acetic acid]
< 100 | < 100 | < 100 | < 100 | CCOC(=O)C(C)n1cc(Nc2ncc3ccn(C[C@H]4CC[C@H](O)CC4)c3n2)cn1 (some centres unmarked) [Compound 120, ethyl 2-(4-((7-(((1r,4r)-4-hydroxycyclohexyl)methyl)-7H-pyrrolo[2,3-d]pyrimidin-2-yl)amino)-1H-pyrazol-1-yl)propanoate]
< 100 | < 100 | < 100 | < 100 | CCOC(=O)CCn1cc(Nc2ncc3ccn(CC(CC)C(C)C)c3n2)cn1 (centres unmarked) [Compound 30, ethyl 3-(4-((7-(2-ethyl-3-methylbutyl)-7H-pyrrolo[2,3-d]pyrimidin-2-yl)amino)-1H-pyrazol-1-yl)propanoate]
< 100 | < 100 | < 100 | < 100 | CCOC(=O)Cn1cc(Nc2ncc3ccn(CC4(C)CCCCC4)c3n2)cn1 [Compound 47, ethyl 2-(4-((7-((1-methylcyclohexyl)methyl)-7H-pyrrolo[2,3-d]pyrimidin-2-yl)amino)-1H-pyrazol-1-yl)acetate]
< 100 | < 100 | < 100 | < 100 | CCOC(=O)CCn1cc(Nc2ncc3ccn(C[C@@H](CC)C(C)C)c3n2)cn1 [Compound 119, ethyl (S)-3-(4-((7-(2-ethyl-3-methylbutyl)-7H-pyrrolo[2,3-d]pyrimidin-2-yl)amino)-1H-pyrazol-1-yl)propanoate]
100 to 1000 | 100 to 1000 | 100 to 1000 | 100 to 1000 | CC(C)OC(=O)Cn1cc(Nc2ncc3ccn(C[C@@H](CCN(C)C)C(C)C)c3n2)cn1 [Compound 96, isopropyl (S)-2-(4-((7-(4-(dimethylamino)-2-isopropylbutyl)-7H-pyrrolo[2,3-d]pyrimidin-2-yl)amino)-1H-pyrazol-1-yl)acetate]
< 100 | < 100 | < 100 | < 100 | CCOC(=O)Cn1cc(Nc2ncc3ccn(C[C@H]4CC[C@H](N)CC4)c3n2)cn1 [Compound 127, ethyl 2-(4-((7-(((1r,4r)-4-aminocyclohexyl)methyl)-7H-pyrrolo[2,3-d]pyrimidin-2-yl)amino)-1H-pyrazol-1-yl)acetate]
< 100 | < 100 | < 100 | < 100 | CCC(Cn1ccc2cnc(Nc3cnn(CC(=O)OCC(C)C)c3)nc21)C(C)C (centres unmarked) [Compound 108, isobutyl 2-(4-((7-(2-ethyl-3-methylbutyl)-7H-pyrrolo[2,3-d]pyrimidin-2-yl)amino)-1H-pyrazol-1-yl)acetate]
< 100 | < 100 | < 100 | < 100 | CCOC(=O)Cn1cc(Nc2ncc3ccn(C[C@H]4CC[C@H](O)CC4)c3n2)cn1 [Compound 51, ethyl 2-(4-((7-(((1r,4r)-4-hydroxycyclohexyl)methyl)-7H-pyrrolo[2,3-d]pyrimidin-2-yl)amino)-1H-pyrazol-1-yl)acetate]
< 100 | 100 to 1000 | < 100 | < 100 | CCOC(=O)Cn1cc(Nc2ncc3ccn(CC45CC6CC(CC(C6)C4)C5)c3n2)cn1 [Compound 34, ethyl 2-(4-((7-(((s,3s)-adamantan-1-yl)methyl)-7H-pyrrolo[2,3-d]pyrimidin-2-yl)amino)-1H-pyrazol-1-yl)acetate]
< 100 | < 100 | < 100 | < 100 | CCC(CC)Cn1ccc2cnc(Nc3cnn(CC(=O)OC4CC(C#N)C4)c3)nc21 (centres unmarked) [Compound 91, 3-cyanocyclobutyl 2-(4-((7-(2-ethylbutyl)-7H-pyrrolo[2,3-d]pyrimidin-2-yl)amino)-1H-pyrazol-1-yl)acetate]
< 100 | < 100 | < 100 | < 100 | CCOC(=O)Cn1cc(Nc2ncc3ccn(CC4CCCC(F)(F)C4)c3n2)cn1 (centres unmarked) [Compound 36, ethyl 2-(4-((7-((3,3-difluorocyclohexyl)methyl)-7H-pyrrolo[2,3-d]pyrimidin-2-yl)amino)-1H-pyrazol-1-yl)acetate]
< 100 | 100 to 1000 | 100 to 1000 | < 100 | CCOC(=O)Cn1cc(Nc2ncc3ccn(Cc4csc(C)n4)c3n2)cn1 [Compound 55, ethyl 2-(4-((7-((2-methylthiazol-4-yl)methyl)-7H-pyrrolo[2,3-d]pyrimidin-2-yl)amino)-1H-pyrazol-1-yl)acetate]
< 100 | < 100 | < 100 | < 100 | CC[C@H](Cn1ccc2cnc(Nc3cnn([C@H]4CCOC4=O)c3)nc21)C(C)C [Compound 82B, (S)-3-(4-((7-((S)-2-ethyl-3-methylbutyl)-7H-pyrrolo[2,3-d]pyrimidin-2-yl)amino)-1H-pyrazol-1-yl)dihydrofuran-2(3H)-one]
